Assay results as given in publication PMC11873722 (Cancer Discovery, 2024).
One block for each compound: values may come before it.

Legend:
[1] = Free drug exposure in LUN055 PDX study; type: in vivo, mouse
[2] = test system: KRAS^G12C NSCLC; details: patients with NSCLC with prior KRAS^G12C(OFF)-only inhibitor treatment; cited from earlier work
[3] = biological target: RAF1(RBD):KRAS^G12C(ON) interaction in MIA PaCa-2 cells (Homo sapiens, UniProt P01116, G12C); assay: RAS:RAF ELISA assay in MIA PaCa-2 cells; type: cell-based; details: 1 µmol/L
RAF1(RBD):KRAS^G12C(ON) interaction in MIA PaCa-2 cells, sequence (P01116 1-188 isoform P01116-2 G12C): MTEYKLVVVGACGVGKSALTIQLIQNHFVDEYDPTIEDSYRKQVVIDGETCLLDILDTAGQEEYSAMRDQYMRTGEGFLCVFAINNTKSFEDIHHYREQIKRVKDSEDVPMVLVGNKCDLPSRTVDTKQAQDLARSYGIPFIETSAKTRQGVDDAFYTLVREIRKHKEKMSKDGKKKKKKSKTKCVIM

free AUC0–24 hours ([1]; 100 mg/kg sotorasib): 1,563 hours × ng/mL
free drug concentration higher compared with BBO-8520 ([1]; 100 mg/kg sotorasib vs 30 mg/kg BBO-8520): 20 fold
SMILES: C=CC(=O)N1CCN(c2nc(=O)n(-c3c(C)ccnc3C(C)C)c3nc(-c4c(O)cccc4F)c(F)cc23)[C@@H](C)C1 [Sotorasib]

SMILES: CCn1c(-c2cccnc2[C@H](C)OC)c2c3cc(ccc31)N1CCO[C@@H](C[C@H](NC(=O)[C@H](C(C)C)N(C)C(=O)C3(F)CCN(C(=O)C#CC(C)(C)N(C)C)CC3)C(=O)N3CCC[C@H](N3)C(=O)OCC(C)(C)C2)C1 [RMC-6291]
objective response rate [2]: 50%

time required to achieve maximal activity [3]: more than 60 minutes
SMILES: C=CC(=O)N1CCN(c2nc(OC[C@@H]3CCCN3C)nc3c(F)c(-c4nc(N)cc(C)c4C(F)(F)F)c(Cl)cc23)[C@@H](C)C1 [GDC-6036]
